Each structure is given as a SMILES string.

We go through four compounds from patent US10517867B2, “Posaconazole derivative, pharmaceutical composition and use thereof” (priority 2016, dated 2019).

A short description of data set [1]: Determination of solubility in deionized water (HPLC, external standard). Particulars: 25 °C, water, thermodynamic from solid.
Data set [2] in a line: In vitro metabolic stability in rat plasma. The data set is classed as in vitro ADME. Particulars: rat, plasma, 37° C., 10 μM compound, read-out: Rat plasma T1/2. How it is done:
(§1) This example detects the metabolic stability of the compounds of the present disclosure in human (rat) plasma and intestinal S9 in vitro. In a human (rat) plasma reaction system, 990 μl of human (rat) plasma was taken and incubated at 37° C. for 5 minutes, and 10 μl of the compound mother liquor was used to initiate the reaction. In the human (rat) intestinal S9 stability experiment, in the order shown in Table 2 below, the samples were added and incubated in a 37° C. water bath to initiate the reaction, each sample performed in triplicates. Respectively, at 1 minute, 2 minutes, 5 minutes, 15 minutes, 30 minutes after the reaction began, 100 μL of each was taken and added to a centrifuge tube containing 400 μL of 0° C. precooled internal standard working solution. The reaction was terminated, vortexed and mixed for 1 minute, centrifuged at 10000×g for 10 minutes in a 4° C. precooled high-speed centrifuge, and the supernatant was detected with HPLC. The test results were used to calculate metabolic half-life using WinNonlin (version 6.2 Pharsight, Mountain View, Calif.) with a non-compartmental model.
(§2) Compound stock solution concentration: 1 mM
(§3) Reaction matrix: human (rat) plasma, intestinal S9 purchased from Research Institute for Liver Diseases (Shanghai) Co., Ltd.

The nature of data set [3]: In vitro metabolic stability in rat intestine S9. It counts as in vitro ADME. Particulars: rat, pH 7.4; 37° C., 10 μM compound, 1 mg/mL S9, NADPH regeneration system; read-out: Rat intestine S9 T1/2. How it is done:
as §1, §2, §3

The test system of data set [4] is Candida albicans ATCC10231. Briefly: Systemic fungal infection in mice, intravenous administration. It counts as in vivo, ICR mice. How it is done: (§4) ICR mice, weighing 18-22 g, male, provided by Hubei Experimental Animal Center.
(§5) Prior to the experiment, a small amount of Candida albicans was picked from an SDA (sacharomyces agar, the same below) medium kept at 4° C. with an inoculation loop and inoculated into 1 ml YPD (Yeast Extract Peptone Dextrose Medium) culture medium, cultured at 30° C. with 200 rpm shaking and activated for 16 hours, so that the fungus was in the late stage of exponential growth. Counted with a hemocytometer and the fungal solution concentration was adjusted to 1×10^3-5×10^3 CFU/ml with RPMI1640 medium (Roswell Park Memorial Institute 1640, the same below). Monoclonal Candida albicans on SDA plate was picked up, inoculated into 1 ml YPD (Yeast Extract Peptone Dextrose Medium, the same below) culture medium, cultured at 35° C., 200 rpm for 16 hours until late exponential growth phase. Candida albicans was inoculated into fresh medium for culturing for 6 hours at 1%, centrifuged at 1000×g for 5 minutes, washed with physiological saline three times until the supernatant was colorless, counted with a hemocytometer, and the cell concentration was adjusted to 5×10^6 cells/ml. A tail vein injection of 0.1 ml/10 g caused a systemic fungal infection in mice. […] A total of 7 days of observations were performed. All dead mice were burned with ethanol.

Data set [5] in a line: In vitro metabolic stability in human plasma. The data set is classed as in vitro ADME. Particulars: human, plasma, 37° C., 10 μM compound, read-out: Human plasma T1/2. How it is done: as §1, §2, §3
The subject of data set [6] is Candida albicans ATCC10231. Briefly: Systemic fungal infection in mice, intragastric administration. The data set is classed as in vivo, ICR mice. Particulars: Candida albicans, ATCC10231, po. How it is done: as §4
as §5, with “SDA” for “SDA (sacharomyces agar, the same below)”, “YPD” for “YPD (Yeast Extract Peptone Dextrose Medium)”, “1×10^3 to 5×10^3” for “1×10^3-5×10^3”, “medium.” for “medium (Roswell Park Memorial Institute 1640, the same below).”

A short description of data set [7]: In vitro metabolic stability in human intestine S9. The conditions noted are these: human; 37° C., 10 μM compound, 1 mg/mL S9, NADPH regeneration system; read-out: Human intestine S9 T1/2. The data set is classed as in vitro ADME. How it is done: as §1, §2, §3
Setting [8] is: 24 h, read-out: survival rate of mice, day 1.
Where [9] appears, read: 48 h, read-out: survival rate of mice, day 2.
Setting [10] is: 72 h, read-out: survival rate of mice, day 3.
Where [11] appears, read: 96 h, read-out: survival rate of mice, day 4.
Where [12] appears, read: 120 h, read-out: survival rate of mice, day 5.
Where [13] appears, read: 144 h, read-out: survival rate of mice, day 6.
The mark [14] stands for this setting: 168 h, read-out: survival rate of mice, day 7.
Setting [15] is: 24 h, read-out: survival rate of mice, day 1, 20 mg/kg intragastric once daily for 5 days, day 1.
Setting [16] is: 48 h, read-out: survival rate of mice, day 2, 20 mg/kg intragastric once daily for 5 days, day 2.
Setting [17] is: 72 h, read-out: survival rate of mice, day 3, 20 mg/kg intragastric once daily for 5 days, day 3.
Where [18] appears, read: 96 h, read-out: survival rate of mice, day 4, 20 mg/kg intragastric once daily for 5 days, day 4.
[19] abbreviates: 120 h, read-out: survival rate of mice, day 5, 20 mg/kg intragastric once daily for 5 days, day 5.
[20] abbreviates: 144 h, read-out: survival rate of mice, day 6, 20 mg/kg intragastric once daily for 5 days, day 6.
The mark [21] stands for this setting: 168 h, read-out: survival rate of mice, day 7, 20 mg/kg intragastric once daily for 5 days, day 7.

Consider `CC[C@@H](C(C)OC(=O)OC(C)OC(=O)CCCCCCOP(=O)([O-])[O-])n1ncn(-c2ccc(N3CCN(c4ccc(OC[C@@H]5CO[C@@](Cn6cncn6)(c6ccc(F)cc6F)C5)cc4)CC3)cc2)c1=O.[Na+].[Na+]` (stereo partly shown) [ST0070], for which, in data set [1], the solubility at 30 min is above 50 mg/mL. In addition, the half-life at 10 µM amounted to 1.12 ± 0.56 min in data set [2], 17.6 ± 5.85 min in data set [3], 0.95 ± 0.31 min in data set [5] and 20.2 ± 8.02 min in data set [7]. The responders at 20 mg/kg in data set [4] (setting [8]) was determined as 100%; in data set [4] (setting [9]), 90%; in data set [4] (setting [10]) it was 90%; in data set [4] (setting [11]), 90%; in data set [4] (setting [12]) it was 90%; in data set [4] (setting [13]), 90%. The responders at 20 mg/kg in data set [4] (setting [14]) came to 90%; in data set [6] (setting [15]) it was 100%; in data set [6] (setting [16]), 90%; in data set [6] (setting [17]), 90%; in data set [6] (setting [18]), 90%; in data set [6] (setting [19]) it was 80%. The responders at 20 mg/kg in data set [6] (setting [20]) and in data set [6] (setting [21]) was 70% in each case.
Take `CC[C@@H]([C@H](C)OC(=O)OCOC(=O)CCCCCOP(=O)([O-])[O-])n1ncn(-c2ccc(N3CCN(c4ccc(OC[C@@H]5CO[C@@](Cn6cncn6)(c6ccc(F)cc6F)C5)cc4)CC3)cc2)c1=O.[Na+].[Na+]` [ST0073]: the solubility at 30 min in data set [1] was above 50 mg/mL. For the same compound, the half-life at 10 µM in data set [2] was determined as 0.75 ± 0.23 min; in data set [3], 16 ± 8.96 min; in data set [5], 0.92 ± 0.11 min; in data set [7], 16.2 ± 6.08 min. Besides, the responders at 20 mg/kg amounted to 100% in data set [4] (setting [8]); 100% in data set [4] (setting [9]); 100% in data set [4] (setting [10]); 100% in data set [4] (setting [11]); 90% in data set [4] (setting [12]); 90% in data set [4] (setting [13]). The responders at 20 mg/kg in data set [4] (setting [14]) amounted to 90%; in data set [6] (setting [15]), 100%; in data set [6] (setting [16]) it was 90%; in data set [6] (setting [17]) it was 80%; in data set [6] (setting [18]) it was 80%; in data set [6] (setting [19]), 80%. In addition, the responders at 20 mg/kg in data set [6] (setting [20]) and in data set [6] (setting [21]) was 70% throughout.
`CC[C@@H](C(C)OC(=O)OCOC(=O)CCCCCCOP(=O)([O-])[O-])n1ncn(-c2ccc(N3CCN(c4ccc(OC[C@@H]5CO[C@@](Cn6cncn6)(c6ccc(F)cc6F)C5)cc4)CC3)cc2)c1=O.[Na+].[Na+]` (stereo partly shown) [ST0074] came in with a solubility at 30 min in data set [1] above 50 mg/mL. Further, the half-life at 10 µM in data set [2] turned out to be 1.26 ± 0.54 min; in data set [3], 18.2 ± 5.66 min; in data set [5], 0.86 ± 0.07 min; in data set [7] it was 20 ± 4.66 min. In addition, the responders at 20 mg/kg was determined as 100% in data set [4] (setting [8]); 100% in data set [4] (setting [9]); 90% in data set [4] (setting [10]); 90% in data set [4] (setting [11]); 90% in data set [4] (setting [12]); 90% in data set [4] (setting [13]). Also, the responders at 20 mg/kg in data set [4] (setting [14]) was found to be 90%; in data set [6] (setting [15]), 100%; in data set [6] (setting [16]) it was 100%; in data set [6] (setting [17]), 90%; in data set [6] (setting [18]), 80%; in data set [6] (setting [19]) it was 80%. In addition, the responders at 20 mg/kg in data set [6] (setting [20]) worked out at 80%; in data set [6] (setting [21]) it was 70%.
In data set [1], `CC[C@@H](C(C)OC(=O)OC(C)OC(=O)CCCOS(=O)(=O)[O-])n1ncn(-c2ccc(N3CCN(c4ccc(OC[C@@H]5CO[C@@](Cn6cncn6)(c6ccc(F)cc6F)C5)cc4)CC3)cc2)c1=O.[Na+]` (stereo partly shown) [ST0077] registered a solubility at 30 min above 50 mg/mL. Besides, the half-life at 10 µM came to 1.55 ± 0.56 min in data set [2], 19.3 ± 5.65 min in data set [3], 1.97 ± 1.29 min in data set [5] and 21.3 ± 5.09 min in data set [7]. Further, the responders at 20 mg/kg turned out to be 100% in data set [4] (24 h, 20 mg/kg tail vein once daily for 5 days, day 1, read-out: survival rate of mice, day 1); 100% in data set [4] (48 h, 20 mg/kg tail vein once daily for 5 days, day 2, read-out: survival rate of mice, day 2); 100% in data set [4] (72 h, 20 mg/kg tail vein once daily for 5 days, day 3, read-out: survival rate of mice, day 3); 100% in data set [4] (96 h, 20 mg/kg tail vein once daily for 5 days, day 4, read-out: survival rate of mice, day 4); 90% in data set [4] (120 h, 20 mg/kg tail vein once daily for 5 days, day 5, read-out: survival rate of mice, day 5); 90% in data set [4] (144 h, 20 mg/kg tail vein once daily for 5 days, day 6, read-out: survival rate of mice, day 6). Besides, the responders at 20 mg/kg in data set [4] (168 h, 20 mg/kg tail vein once daily for 5 days, day 7, read-out: survival rate of mice, day 7) came out at 90%; in data set [6] (24 h, 20 mg/kg intragastric once daily for 5 days, day 1, read-out: survival rate of mice, day 1), 100%; in data set [6] (48 h, 20 mg/kg intragastric once daily for 5 days, day 2, read-out: survival rate of mice, day 2), 90%; in data set [6] (72 h, 20 mg/kg intragastric once daily for 5 days, day 3, read-out: survival rate of mice, day 3) it was 80%; in data set [6] (96 h, 20 mg/kg intragastric once daily for 5 days, day 4, read-out: survival rate of mice, day 4) it was 80%; in data set [6] (120 h, 20 mg/kg intragastric once daily for 5 days, day 5, read-out: survival rate of mice, day 5) it was 80%. Also, the responders at 20 mg/kg worked out at 70% in data set [6] (144 h, 20 mg/kg intragastric once daily for 5 days, day 6, read-out: survival rate of mice, day 6) and 70% in data set [6] (168 h, 20 mg/kg intragastric once daily for 5 days, day 7, read-out: survival rate of mice, day 7).

As usually defined, the solubility is the concentration that dissolves in the medium under given conditions.
